Among the data in patent publication US6747147B2, “Oxo-azabicyclic compounds” (Warner-Lambert Company, priority 2002, dated 2004) are IC50 values, retold here.

Counter-ions that a name gives are not always drawn.

One assay deals with T1, catalytic domain of human MMP-13 (Homo sapiens, UniProt P45452).
T1 construct: the catalytic domain of human MMP-13
Kind of assay: Inhibition of proteolysis of a thioester peptide substrate by MMP-13. In kind it is biochemical.
Conditions: not given
How it is done: Evaluation of the in vitro activity of the MMP-13 inhibitor compounds according to the invention.
The inhibitory activity of the compounds of formula (I) according to the invention with respect to matrix metalloprotease-13 is evaluated by testing the ability of the compounds of the invention to inhibit the proteolysis of a peptide substrate with MMP-13.
The peptide substrate used in the test is the following peptide: Ac-Pro-Leu-Gly-thioester-Leu-Leu-Gly-OEt.
To carry out this test, a reaction medium of 100 μl volume is prepared, containing: 50 mM of HEPES buffer, 10 mM of CaCl2 and 1 mM of 5,5′-dithiobis-(2-nitrobenzoic acid) (DTNB), and 100 μM of substrate, the pH being adjusted to 7.0.
The concentrations of inhibitors present in the test samples range from 100 μM to 0.5 nM.
The IC50 values are calculated from a curve in which the percentage of the catalytic activity relative to the control is represented on the X-axis and the concentration of inhibitor is represented on the Y-axis.
The IC50 is the concentration needed to halve the response being measured. `O=c1c2cc(C#CCc3ccccc3)ccc2ncn1Cc1ccc(F)cc1` [Example 8, 3-(4-fluorobenzyl)-6-(3-phenyl-pro-1-ynyl)-3 H-quinazolin-4-one] yielded an IC50 below 1000 nM.

`COC(=O)c1ccc(Cn2cnc3ccc(C#CCc4ccccc4)cc3c2=O)cc1` [Example 9, Methyl 4-[4-Oxo-6-(3-phenyl-prop-1-ynyl)-4H-quinazolin-3-ylmethyl]-benzoate] gave an IC50 below 1000 nM.

`NS(=O)(=O)c1ccc(Cn2cnc3ccc(C#CCc4ccccc4)cc3c2=O)cc1` [Example 59, 4-[4-Oxo-6-(3-phenyl-prop-1-ynyl)-4H-quinazolin-3-ylmethyl]-benzenesulfonamide]: the half-maximal inhibitory concentration (IC50) is below 1000 nM.

`N#Cc1ccc(Cn2cnc3ccc(C#CCc4ccccc4)cc3c2=O)cc1` [Example 60, 4-[4-Oxo-6-(3-phenyl-prop-1-ynyl)-4H-quinazolin-3-ylmethyl]-benzonitrile] had an IC50 below 1000 nM.

For `O=c1c2cc(C#CCc3ccccc3)ccc2ncn1Cc1cccc(Cl)c1` [Example 62, 3-(3-Chloro-benzyl)-6-(3-phenyl-prop-1-ynyl)-3H-quinazolin-4-one], the IC50 was below 1000 nM.

With `O=C(O)c1ccc(Cn2cnc3ccc(C#CCN4CCOCC4)cc3c2=O)cc1` [Example 106, 4-[6-(3-Morpholin-4-yl-prop-1-ynyl)-4-oxo-4H-quinazolin-3-ylmethyl]-benzoic acid trifluoroacetic acid salt], the IC50 is at least 65000 nM.

For `O=C(O)c1ccc(Cn2cnc3ccc(C#CCN4CCCCC4)cc3c2=O)cc1` [Example 107, 4-[4-Oxo-6-(3-piperidin-1-yl-prop-1-ynyl)-4H-quinazolin-3-ylmethyl]-benzoic acid trifluoroacetic acid salt], the IC50 was at least 65000 nM.

The same assay, now with this note: substrate Ac-Pro-Leu-Gly-thioester-Leu-Leu-Gly-OEt 100 μM, pH 7.0, 2.5 nM enzyme; read-out: IC50 values on MMP-13.
Consider `COc1ccc(CNC(=O)c2ccc3ncn(Cc4ccc(OC)cc4)c(=O)c3c2)cc1` [Example 1, 3-(4-Methoxy-benzyl)-4-oxo-3,4-dihydro-quinazoline-6-carboxylic acid 4-methoxy-benzylamide], for which the IC50 is below 1000 nM.

Take `COc1ccc(CNC(=O)c2ccc3nc(C)n(Cc4ccc(OC)cc4)c(=O)c3c2)cc1` [Example 2, 3-(4-Methoxy-benzyl)-2-methyl-4-oxo-3,4-dihydro-quinazoline-6-carboxylic acid 4-methoxy-benzylamide, hydrochloride]: the IC50 was below 1000 nM.

As for `COc1ccc(CNC(=O)c2ccc3c(c2)C(=O)N(Cc2ccc(OC)cc2)CN3C)cc1` [Example 3, 3-(4-Methoxy-benzyl)-1-methyl-4-oxo-1,2,3,4-tetrahydro-quinazoline-6-carboxylic acid 4-methoxy-benzylamide], the IC50 was below 1000 nM.

`COc1ccc(CNC(=O)c2ccc3c(c2)C(=O)N(Cc2ccc(OC)cc2)C(C)(C)N3C)cc1` [Example 4, 3-(4-Methoxy-benzyl)-1,2,2-trimethyl-4-oxo-1,2,3,4-tetrahydro-quinazoline-6-carboxylic acid 4-methoxy-benzylamide]: the IC50 was below 1000 nM.

In the case of `COc1ccc(CNC(=O)c2ccc3c(c2)C(=O)N(Cc2ccc(C(=O)O)cc2)CN3)cc1` [Example 5, 4-[6-(4-Methoxy-benzylcarbamoyl)-4-oxo-1,4-dihydro-2H-quinazolin-3-ylmethyl]-benzoic acid], the IC50 was below 1000 nM.

Regarding `COC(=O)c1ccc(CN2CN(C)c3ccc(C(=O)NCc4ccc(OC)cc4)cc3C2=O)cc1` [Example 6, Methyl 4-[6-(4-Methoxy-benzylcarbamoyl)-1-methyl-4-oxo-1,4-dihydro-2H-quinazolin-3-ylmethyl]-benzoate], the IC50 was below 1000 nM.

In the case of `COc1ccc(CNC(=O)c2ccc3c(c2)C(=O)N(Cc2ccc(C(=O)O)cc2)CN3C)cc1` [Example 7, 4-[6-(4-Methoxy-benzylcarbamoyl)-1-methyl-4-oxo-1,4-dihydro-2H-quinazolin-3-ylmethyl]-benzoic acid], the concentration for half-maximal inhibition (IC50) is below 1000 nM.

For `COc1cccc(CNC(=O)c2ccc3ncn(Cc4ccc(F)cc4)c(=O)c3c2)c1` [Example 14, 3-(4-Fluoro-benzyl)-4-oxo-3,4-dihydro-quinazoline-6-carboxylic acid 3-methoxy-benzylamide], the IC50 was below 1000 nM.

For `COc1ccc(CNC(=O)c2ccc3ncn(Cc4ccc(S(C)(=O)=O)cc4)c(=O)c3c2)cc1` [Example 15], the IC50 is below 1000 nM.

As for `COc1ccc(CNC(=O)c2ccc3ncn(Cc4ccc(S(=O)(=O)N5CCCC5)cc4)c(=O)c3c2)cc1` [Example 16, 4-Oxo-3-[4-(pyrrolidine-1-sulfonyl)-benzyl]-3,4-dihydro-quinazoline-6-carboxylic acid 4-methoxy-benzylamide], the IC50 is below 1000 nM.

As for `COc1cccc(CNC(=O)c2ccc3ncn(Cc4ccc(C(=O)O)cc4)c(=O)c3c2)c1` [Example 17, 4-[6-(3-Methoxy-benzylcarbamoyl)-4-oxo-4H-quinazolin-3-ylmethyl]-benzoic acid], the IC50 was below 1000 nM.

Consider `COc1cc(CNC(=O)c2ccc3ncn(Cc4ccc(F)cc4)c(=O)c3c2)ccn1` [Example 21, 3-(4-Fluoro-benzyl)-4-oxo-3,4-dihydro-quinazoline-6-carboxylic acid (2-methoxy-pyridin-4-ylmethyl)-amide], for which the IC50 is below 1000 nM.

`COc1cccc(CNC(=O)c2cc3c(=O)n(Cc4cccc(F)c4)cnc3cn2)c1` [Example 23, 3-(3-Fluoro-benzyl)-4-oxo-3,4-dihydro-pyrido[3,4-d]pyrimidine-6-carboxylic acid 3-methoxy-benzylamide]: the IC50 was below 1000 nM.

Turning to `COc1ccc(CNC(=O)c2cc3c(=O)n(Cc4cccc(F)c4)cnc3cn2)cc1` [Example 24, 3-(3-Fluoro-benzyl)-4-oxo-3,4-dihydro-pyrido[3,4-d]pyrimidine-6-carboxylic acid 4-methoxy-benzylamide], the IC50 was below 1000 nM.

Take `O=c1c2cc(C#CCOc3ccncc3)ccc2ncn1Cc1ccc(F)c(F)c1` [Example 65, 3-(3,4-Difluoro-benzyl)-6-[3-(pyridin-4-yloxy)-prop-1-ynyl]-3H-quinazolin-4-one]: the IC50 is below 1000 nM.

Consider `COc1ccc(CC#Cc2ccc3ncn(Cc4ccc(F)c(F)c4)c(=O)c3c2)cc1` [Example 66, 3-(3,4-Difluoro-benzyl)-6-[3-(4-methoxy-phenyl)-prop-1-ynyl]-3H-quinazolin-4-one], for which the IC50 was below 1000 nM.

`CC(=O)Nc1ccc(Cn2cnc3ccc(C#CCc4ccccc4)cc3c2=O)cc1` [Example 67, N-{4-[4-Oxo-6-(3-phenyl-prop-1-ynyl)-4H-quinazolin-3-ylmethyl]-phenyl}-acetamide]: the IC50 was below 1000 nM.

Regarding `O=c1c2cc(C#CCc3ccccc3)ccc2ncn1Cc1ccc(F)c(F)c1` [Example 68, 3-(3,4-Difluoro-benzyl)-6-(3-phenyl-prop-1-ynyl)-3H-quinazolin-4-one], the IC50 is below 1000 nM.

Take `COc1ccc(CC#Cc2ccc3ncn(Cc4ccc(C(C)=O)cc4)c(=O)c3c2)cc1` [Example 69, 3-(4-Acetyl-benzyl)-6-[3-(4-methoxy-phenyl)-prop-1-ynyl]-3H-quinazolin-4-one]: the IC50 was below 1000 nM.

On to `O=c1c2cc(C#CCc3ccccc3)ccc2ncn1Cc1ccncc1` [Example 70, 6-(3-Phenyl-prop-1-ynyl)-3-pyridin-4-ylmethyl-3H-quinazolin-4-one], for which the IC50 is below 1000 nM.

As for `COc1ccc(CC#Cc2ccc3ncn(Cc4ccncc4)c(=O)c3c2)cc1` [Example 71, 6-[3-(4-Methoxy-phenyl)-prop-1-ynyl]-3-pyridin-4-ylmethyl-3H-quinazolin-4-one], the concentration for half-maximal inhibition (IC50) was below 1000 nM.

Regarding `COc1cc(CNC(=O)c2ccc3ncn(Cc4ccc(F)c(F)c4)c(=O)c3c2)ccn1` [Example 104, 3-(3,4-Difluoro-benzyl)-4-oxo-3,4-dihydro-quinazoline-6-carboxylic acid (2-methoxy-pyridin-4-ylmethyl)-amide], the IC50 is below 1000 nM.

As for `COc1ccc(CNC(=O)c2ccc3ncn(Cc4ccc(F)c(F)c4)c(=O)c3c2)cc1` [Example 105, 3-(3,4-Difluoro-benzyl)-4-oxo-3,4-dihydro-quinazoline-6-carboxylic acid 4-methoxy-benzylamide], the half-inhibitory concentration (IC50) is below 1000 nM.

Consider `CN1CCN(CC#Cc2ccc3ncn(Cc4ccc(C(=O)O)cc4)c(=O)c3c2)CC1` [Example 108, 4-{6-[3-(4-Methyl-piperazin-1-yl)-prop-1-ynyl]-4-oxo-4H-quinazolin-3-ylmethyl}-benzoic acid trifluoroacetic acid salt], for which the IC50 was at least 65000 nM.

Take `O=C(O)c1ccc(Cn2cnc3ccc(C#CCN4Cc5ccccc5C4)cc3c2=O)cc1` [Example 109, 4-{6-[3-(1,3-Dihydro-isoindol-2-yl)-prop-1-ynyl]-4-oxo-4H-quinazolin-3-ylmethyl}-benzoic acid trifluoroacetic acid]: the IC50 is below 1000 nM.
